The results in this text go back to patent US7858613B2, “Substituted benzo-condensed cycloheptanone derivatives and their use for producing drugs” (Gruenenthal GmbH, priority 2005, dated 2010).

One experiment has as its target T1, human CB2 receptor (Homo sapiens, UniProt P34972).
T1 construct: expressed in transfected cells; host or cells: HEK-293EBNA cells (membranes)
In words: Affinity for cannabinoid receptor CB2, [3H]-CP 55,940 displacement on HEK-293EBNA membranes. As to conditions: 10 μM test substance; 0.33 nM [3H]-CP 55,940; percent inhibition of specific binding. An excerpt:
VI. Determination of the Affinity for the Cannabinoid Receptor CB2 (CB2 Receptor):
To determine the affinity of the inventive compounds for the cannabinoid receptor, membranes from human recombinant HEK-293EBNA cells were used, which had been transfected stably with the human CB2 receptor. The radioligand used was tritium-labeled 5-(1,1-dimethylheptyl)-2-(5-hydroxypropyl)cyclohexyl)-1-alpha,2-beta,5-alpha)phenol ([3]H—CP 55,940 with 103.4 Ci/mmol, 1 mCi/ml). The determination was effected in a test buffer composed of 50 mM Tris-HCl, 2.5 mM EDTA, 5 mM MgCl2 and 1.0 mg/ml of fatty acid-free BSA. The test substances were each dissolved in DMSO.
The affinity of the inventive compounds for the CB2 receptor is determined by their ability to displace [3]H—CP 55,940 from CB2 receptors in membranes from HEK-293EBNA cells. To this end, in each case 8 μg of the membranes (20 μl of a solution from membranes in a concentration of 400 μg/ml) are incubated in wells on a microtiter plate with a 0.33 nM solution of ^[3]H-CP […] (120 Ci/mmol) in a total volume of test buffer of 200 μl at 30° C. for 90 minutes.
Subsequently, either the test substances or WIN 55212-2 to determine the unspecific binding, in each case dissolved in DMSO, are added to the wells so as to result in each case in a concentration of the corresponding substances of 10 μM.
Incubation at 30° C. is continued for a further 40 minutes. The binding reaction was ended by rapid filtration through GF/C filter paper which had been treated with 0.05% PEI using a Brandel cell harvester with 96 wells. The filters are washed nine times with 0.5 ml of ice-cooled washing buffer ([…] Tris-HCl, 5 mM MgCl2, 2.5 mM EDTA, 2% BSA, pH 7.4), air-dried and placed in scintillation fluid, and the radioactivity is determined with the aid of a scintillation counter.
The percentage displacement of the radioactive ligand ^[3]H-CP 55,940 from its binding to the CB2 receptor is reported as percent inhibition of the specific binding.

The next experiment concerns the target T2, vanilloid receptor (VR1) (Homo sapiens, UniProt Q8NER1).
T2 construct: expressed in transfected cells; host or cells: CHO K1 cells (ECACC)
The experiment in a line: Functional study on vanilloid receptor (VR1), FLIPR Ca2+ assay in VR1-transfected CHO K1 cells. Format: cell-based. As to conditions: test substance 10 μM; CHO K1 cells transfected with VR1; suppression of Ca2+ current after 100 nM capsaicin; read-out: VR1 (human) (% inhibition compared to 10 μM CP). An excerpt: II. Functional Studies on the Vanilloid Receptor (VR1)
The agonistic or antagonistic action of the substances to be tested on vanilloid receptor (VR1) can also be determined with the assay which follows. In this assay, the Ca^2+ current through the channel is quantified with the aid of a Ca^2+-sensitive dye (Fluo-4 type, Molecular Probes, Europe BV, Leiden, the Netherlands) in a fluorescent imaging plate reader (FLIPR, Molecular Devices, Sunnyvale, USA).
Chinese hamster ovary cells (CHO K1 cells, European Collection of Cell Cultures (ECACC) Great Britain) are transfected stably with the VR1 gene. For functional studies, these cells are plated out onto poly-D-lysine-coated black 96-well plates with a clear bottom (BD Biosciences, Heidelberg, Germany) in a density of 25 000 cells/well. The cells are incubated overnight at 37° C. and 5% CO2 in a culture medium (Ham's Nutrient Mixture F12, 10% by volume of FCS (fetal calf serum), 18 μg/ml of L-proline). The next day, the cells are incubated with Fluo-4 (Fluo-4 2 μM, Pluronic F127 0.01% by volume, Molecular Probes in HBSS (Hank's buffered saline solution), Gibco Invitrogen GmbH, Karlsruhe, Germany) at 37° C. for 30 minutes. Subsequently, the plates are washed 3 times with HBSS buffer and, after a further incubation of 15 minutes at room temperature, used for Ca^2+ measurement in FLIPR. The Ca^2+-dependent fluorescence is measured before and after addition of the substances to be studied (wavelength λex=488 nm, λem=540 nm). The quantification is effected by measuring the highest fluorescence intensity (FC, fluorescence counts) over the time.
The FLIPR protocol consists of 2 substance additions. First, the substances to be tested (10 μM) are pipetted onto the cells and the Ca^2+ current is compared with the control (capsaicin 10 μM) (% activation based on the Ca^2+ signal after addition of 10 μM capsaicin). After incubation for 5 minutes, 100 nM capsaicin is applied and the current of Ca^2+ is likewise determined.
Desensitizing agonists and antagonists led to a suppression of the Ca^2+ current. % inhibition is calculated compared to the maximum achievable inhibition with 10 μM capsazepine.

The target of experiment [1] is T3, vanilloid receptor 1 (VR1/TRPV1) (Rattus norvegicus, UniProt O35433).
T3 construct: The spinal column is removed from beheaded rats; from tissue; host or cells: primary cells from rat dorsal root ganglia
In words: Functional study on vanilloid receptor 1 (VR1/TRPV1), FLIPR Ca2+ assay in rat dorsal root ganglia cells. As to conditions: test compound 10 μM, rat DRG cells; for inhibition at 10 µM: suppression of Ca2+ current after 100 nM capsaicin, read-out: VR1 (rat) (% inhibition compared to 10 μM CP). Format: cell-based. As for the experimental part:
Preference may likewise be given to inventive compounds which, in the FLIPR assay, in a concentration of 10 μM, have an inhibition of the Ca^2+ ion current in dorsal root ganglia of rats of at least 10%, preferably of at least 30%, more preferably of at least 50%, even more preferably of at least 70%, even more preferably of at least 90%, compared to the maximum achievable inhibition of the Ca^2+ ion current with […] in a concentration of 10 μM.
In the FLIPR assay, the Ca^2+ current is quantified with the aid of a Ca^2+-sensitive dye (Fluo-4 type, Molecular Probes Europe BV, Leiden, the Netherlands) in the fluorescent imaging plate reader (FLIPR, Molecular Devices, Sunnyvale, USA), as described below.
I. Functional Study on the Vanilloid Receptor 1 (VR1/TRPV1 Receptor)
The agonistic or antagonistic action of the substances to be studied on the vanilloid receptor 1 (VR1/TRPV1) of the rat species can be determined with the following assay. In this assay, the Ca^2+ current through the receptor channel is quantified with the aid of a Ca^2+-sensitive dye (Fluo-4 type, Molecular Probes Europe BV, Leiden the Netherlands) in a fluorescent imaging plate reader (FLIPR, Molecular Devices, Sunnyvale, USA).
Cell culture plate: poly-D-lysine-coated, black 96-hole plates with a clear bottom (96 well black/clear plate, BD Biosciences, Heidelberg, Germany) are additionally coated with laminin (Gibco Invitrogen GmbH, Karlsruhe, Germany) by diluting laminin to a concentration of 100 μg/ml with PBS (Ca—Mg-free PBS, Gibco Invitrogen GmbH, Karlsruhe, Germany). Aliquots having a concentration of 100 μg/ml of laminin are withdrawn and stored at −20° C. The aliquots are diluted with PBS in a ratio of 1:10 to 10 μg/ml of laminin and in each case 50 μl of the solution are pipetted into a well of the cell culture plate. The cell culture plates are incubated at 37° C. for at least two hours, the supernatant solution is removed by suction and the wells are each washed twice with PBS. The coated cell culture plates are stored with supernatant PBS which is not removed until directly before the application of the cells.
The spinal column is removed from beheaded rats and placed directly into cold HBSS buffer (Hank's buffered saline solution, Gibco Invitrogen GmbH, Karlsruhe, Germany), i.e. placed in an ice bath, which has been admixed with 1% by volume of an AA solution (antibiotic/antimycotic solution, PAA, Pasching, Austria). The spinal column is severed longitudinally and removed from the spinal canal together with fasciae. Subsequently, the dorsal root ganglia (DRGs) are removed and in turn stored in cold HBSS buffer admixed with 1% by volume of an AA solution. The DRGs freed completely of blood residues and spinal nerves are in each case transferred to 500 μl of cold type 2 collagenase (PAA, Pasching, Austria) and incubated at 37° C. for 35 minutes. After addition of 2.5% by volume of trypsin (PAA, Pasching, Austria), incubation is continued at 37° C. for a further 10 minutes. After complete incubation, the enzyme solution is cautiously pipetted off and the remaining DRGs are each admixed with 500 μl of complete medium.
The DRGs are each suspended repeatedly, drawn through cannulas No. 1, No. 12 and No. 16 by means of a syringe and transferred to 50 ml Falcon tubes which are made up to 15 ml with complete medium. The contents of each Falcon tube are in each case filtered through a 70 μm Falcon filter insert and centrifuged at 1200 revolutions and room temperature for 10 minutes. The resulting pellet is in each case taken up in 250 μl of complete medium and the cell count is determined.
The number of cells in the suspension is adjusted to 3 times 10^5 per ml and in each case 150 μl of this suspension are added to one well of the cell culture plates coated as described above. In the incubator, the plates are left to stand at 37° C., 5% by volume of CO2 and 95% relative air humidity for two to three days. […]

As usually defined, the inhibition is the relative decrease from the control value, in per cent.

T2 sequence (Q8NER1 whole entry): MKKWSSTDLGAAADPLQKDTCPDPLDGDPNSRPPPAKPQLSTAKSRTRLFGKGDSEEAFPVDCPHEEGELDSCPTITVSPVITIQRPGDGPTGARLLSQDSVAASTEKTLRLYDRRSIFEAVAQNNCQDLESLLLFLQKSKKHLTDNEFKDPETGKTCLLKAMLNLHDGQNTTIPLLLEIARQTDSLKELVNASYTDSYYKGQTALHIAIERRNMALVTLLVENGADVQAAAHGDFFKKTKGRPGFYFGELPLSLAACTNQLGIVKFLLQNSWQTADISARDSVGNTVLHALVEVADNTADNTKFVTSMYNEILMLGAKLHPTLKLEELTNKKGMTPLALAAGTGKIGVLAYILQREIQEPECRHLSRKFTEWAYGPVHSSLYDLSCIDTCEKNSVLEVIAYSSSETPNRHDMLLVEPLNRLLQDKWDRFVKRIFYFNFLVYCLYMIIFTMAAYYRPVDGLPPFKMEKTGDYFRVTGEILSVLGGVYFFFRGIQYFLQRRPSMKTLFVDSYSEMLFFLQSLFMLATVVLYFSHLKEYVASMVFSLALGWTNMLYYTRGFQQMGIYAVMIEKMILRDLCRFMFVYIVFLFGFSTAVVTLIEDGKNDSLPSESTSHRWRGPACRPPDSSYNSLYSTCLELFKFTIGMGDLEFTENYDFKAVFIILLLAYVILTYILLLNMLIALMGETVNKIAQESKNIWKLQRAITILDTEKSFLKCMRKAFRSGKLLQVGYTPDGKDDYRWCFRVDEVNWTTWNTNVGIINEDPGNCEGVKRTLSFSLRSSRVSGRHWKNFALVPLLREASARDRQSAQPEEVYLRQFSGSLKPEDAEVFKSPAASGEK
T3 sequence (O35433 whole entry): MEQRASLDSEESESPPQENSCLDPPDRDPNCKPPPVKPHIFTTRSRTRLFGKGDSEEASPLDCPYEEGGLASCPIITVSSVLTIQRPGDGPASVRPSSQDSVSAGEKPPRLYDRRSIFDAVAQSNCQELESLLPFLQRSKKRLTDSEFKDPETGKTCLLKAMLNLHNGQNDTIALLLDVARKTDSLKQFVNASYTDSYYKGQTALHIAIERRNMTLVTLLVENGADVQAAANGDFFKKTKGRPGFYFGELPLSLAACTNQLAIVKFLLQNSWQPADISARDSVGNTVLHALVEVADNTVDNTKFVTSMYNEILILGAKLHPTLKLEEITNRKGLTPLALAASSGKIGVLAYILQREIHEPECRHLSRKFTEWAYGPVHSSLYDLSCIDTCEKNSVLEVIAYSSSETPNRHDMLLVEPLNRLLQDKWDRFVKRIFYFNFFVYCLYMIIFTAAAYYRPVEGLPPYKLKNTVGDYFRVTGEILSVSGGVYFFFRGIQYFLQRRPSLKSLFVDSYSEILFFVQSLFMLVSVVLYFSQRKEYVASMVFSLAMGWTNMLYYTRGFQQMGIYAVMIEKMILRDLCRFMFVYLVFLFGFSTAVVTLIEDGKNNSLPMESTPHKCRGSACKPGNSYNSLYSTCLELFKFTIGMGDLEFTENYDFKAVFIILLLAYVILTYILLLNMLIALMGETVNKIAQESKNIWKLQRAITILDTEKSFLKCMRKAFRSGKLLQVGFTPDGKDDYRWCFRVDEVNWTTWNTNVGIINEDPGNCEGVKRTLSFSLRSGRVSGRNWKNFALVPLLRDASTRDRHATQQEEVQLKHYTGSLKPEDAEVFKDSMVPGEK
T1 sequence (P34972 whole entry): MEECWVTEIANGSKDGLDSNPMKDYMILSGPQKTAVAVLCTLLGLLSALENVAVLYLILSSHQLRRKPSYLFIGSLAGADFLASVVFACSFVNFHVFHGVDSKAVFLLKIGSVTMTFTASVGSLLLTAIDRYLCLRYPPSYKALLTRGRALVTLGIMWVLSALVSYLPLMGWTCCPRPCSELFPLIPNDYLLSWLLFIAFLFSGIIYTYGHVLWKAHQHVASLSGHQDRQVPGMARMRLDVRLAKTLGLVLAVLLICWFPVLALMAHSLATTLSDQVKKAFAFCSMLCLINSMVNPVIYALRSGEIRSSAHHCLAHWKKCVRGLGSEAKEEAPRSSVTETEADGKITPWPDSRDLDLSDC

Turning to `CCCCCNC(=O)OCC1CCSc2ccccc2C1=O` (stereo not drawn) [Example Compound 1, Pentylcarbamic acid 5-oxo-2,3,4,5-tetrahydrobenzo[b]thiepin-4-ylmethyl ester], on human CB2 receptor, the inhibition at 10 µM was 42.2%.
For the molecule `O=C(NC1CCCCC1)OCC1(CO)CCSc2ccccc2C1=O` (stereo not drawn) [Example Compound 6, Cyclohexylcarbamic acid 4-hydroxymethyl-5-oxo-2,3,4,5-tetrahydro-benzo[b]thiepin-4-ylmethyl ester], the inhibition at 10 µM at vanilloid receptor (VR1) was determined as 26.7%; on human CB2 receptor, 53.6%.
For `O=C1c2ccccc2SCCC1(CO)COC(=S)Nc1cccc(C(F)(F)F)c1` (stereo not drawn) [Example Compound 17, (3-Trifluoromethylphenyl)thiocarbamic acid O-(4-hydroxymethyl-5-oxo-2,3,4,5-tetrahydrobenzo[b]thiepin-4-ylmethyl)ester], the inhibition at 10 µM turned out to be 17.1% on vanilloid receptor (VR1), 46.6% in experiment [1] and 3.8% on human CB2 receptor.
The molecule `O=C(Nc1ccc(F)cc1F)OCC1(COC(=O)Nc2ccc(F)cc2F)CCOc2ccccc2C1=O` [Example Compound 16, 2,4-Difluorophenylcarbamic acid 4-(2,4-difluorophenylcarbamoyloxymethyl)-5-oxo-2,3,4,5-tetrahydrobenzo[b]oxepin-4-ylmethyl ester] registered an inhibition at 10 µM on human CB2 receptor of 63.4%.
Take `O=C1c2ccccc2OCCC1(CO)COC(=S)Nc1cccc(C(F)(F)F)c1` (stereo not drawn) [Example Compound 18, (3-Trifluoromethylphenyl)thiocarbamic acid O-(4-hydroxymethyl-5-oxo-2,3,4,5-tetrahydrobenzo[b]oxepin-4-ylmethyl)ester]: the values for the inhibition at 10 µM (on vanilloid receptor (VR1); in experiment [1]; at human CB2 receptor) were 31.5%, 52.1% and 15.6%, respectively.
With `O=C1c2ccccc2SCCC1(CO)COC(=S)Nc1ccc(F)cc1F` (stereo not drawn) [Example Compound 21, (2,4-Difluorophenyl)thiocarbamic acid O-(4-hydroxymethyl-5-oxo-2,3,4,5-tetrahydrobenzo[b]thiepin-4-ylmethyl)ester], the inhibition at 10 µM was determined as 36.3% at vanilloid receptor (VR1) and 34.6% in experiment [1].
Regarding `O=C1c2ccccc2CCCC1(CO)COC(=S)Nc1cccc(C(F)(F)F)c1` (stereo not drawn) [Example Compound 22, (3-Trifluoromethylphenyl)thiocarbamic acid O-(6-hydroxymethyl-5-oxo-6,7,8,9-tetrahydro-5H-benzocyclohepten-6-ylmethyl)ester], the inhibition at 10 µM was found to be 67.5% on vanilloid receptor (VR1) and 59.7% in experiment [1]. The “VR1 (rat) (% stimulation compared to 10 μM CP)” value in experiment [1] (Ca2+ signal relative to 10 μM capsaicin (CP)) came out at 77.9%.
As for `O=C(Nc1ccc(Br)cc1)OCC1CCSc2ccccc2C1=O` (stereo not drawn) [Example Compound 5, (4-Bromophenyl)carbamic acid 5-oxo-2,3,4,5-tetrahydrobenzo[b]thiepin-4-ylmethyl ester], the results for the inhibition at 10 µM on vanilloid receptor (VR1) and at human CB2 receptor were 53.8% and 36.2%, respectively.
On to `O=C1c2ccccc2SCCC1(CO)COC(=S)Nc1ccccc1` (stereo not drawn) [Example Compound 9, Phenylthiocarbamic acid O-(4-hydroxymethyl-5-oxo-2,3,4,5-tetrahydro-benzo[b]thiepin-4-ylmethyl)ester], for which the values for the inhibition at 10 µM (at vanilloid receptor (VR1); in experiment [1]; at human CB2 receptor) were 51.3%, 52.8% and 28.3%, respectively.
In the same order, the values of `O=C(Nc1ccc(F)cc1F)OCC1(CO)CCSc2ccccc2C1=O` (stereo not drawn) [Example Compound 20, (2,4-Difluorophenyl)carbamic acid 4-hydroxymethyl-5-oxo-2,3,4,5-tetrahydro-benzo[b]thiepin-4-ylmethyl ester] are 21.8%, 17.1% and 41%.
As for `CCCCCNC(=O)OCC1(COC(=O)NCCCCC)CCSc2ccccc2C1=O` [Example Compound 14, pentylcarbamic acid 4-(pentylcarbamoyloxymethyl)-5-oxo-2,3,4,5-tetrahydrobenzo[b]thiepin-4-ylmethyl ester], at 10 µM the inhibition at human CB2 receptor was 61.8%.
